According to publication PMC3402552 (Journal of Medicinal Chemistry, 2012):
One block for each compound: values may come before it.

Tests used:
5-HT2B = 5-HT2B (Homo sapiens, UniProt P41595); test: PDSP radioligand competition binding, 5-HT2B; settings: Figure 9B
5-HT2A S3.36A/C mutant = settings: S3.36A/C mutations; cited from earlier work
5-HT2A F6.52L mutant = settings: F6.52L mutation; cited from earlier work
5-HT2A W6.48A mutant = settings: cited from earlier work
5-HT2A F6.51L mutant = settings: cited from earlier work
5-HT1B = 5-HT1B (Homo sapiens, UniProt P28222); test: PDSP radioligand competition binding, 5-HT1B; settings: 5-HTR profiling
5-HT7 = 5-HT7 (Homo sapiens, UniProt P34969); settings: 5-HTR profiling
5-HT2A = 5-HT2A (Homo sapiens, UniProt P28223); test: PDSP radioligand competition binding, 5-HT2A; settings: 5-HTR profiling
5-HT1E = 5-HT1E (Homo sapiens, UniProt P28566); test: PDSP radioligand competition binding, 5-HT1E; settings: 5-HTR profiling
5-HT3 = biological target: T1, 5-HT3 (Homo sapiens, UniProt P46098); test: PDSP radioligand competition binding, 5-HT3; settings: 5-HTR profiling
T1 sequence (P46098 24-478): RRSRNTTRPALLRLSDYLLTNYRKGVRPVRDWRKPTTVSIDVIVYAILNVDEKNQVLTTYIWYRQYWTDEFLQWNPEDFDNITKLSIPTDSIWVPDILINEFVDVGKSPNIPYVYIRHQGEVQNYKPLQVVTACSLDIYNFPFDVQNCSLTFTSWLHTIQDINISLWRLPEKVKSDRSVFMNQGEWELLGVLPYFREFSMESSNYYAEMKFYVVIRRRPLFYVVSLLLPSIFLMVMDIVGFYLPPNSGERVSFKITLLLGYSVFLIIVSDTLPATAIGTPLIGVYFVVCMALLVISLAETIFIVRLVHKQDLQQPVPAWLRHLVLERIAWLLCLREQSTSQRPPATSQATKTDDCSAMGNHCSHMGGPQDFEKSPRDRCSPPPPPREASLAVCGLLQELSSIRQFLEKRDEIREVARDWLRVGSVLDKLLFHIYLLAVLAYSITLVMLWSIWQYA

5-HT5a = 5-HT5a (Homo sapiens, UniProt P47898); settings: 5-HTR profiling
5-HT6 = 5-HT6 (Homo sapiens, UniProt P50406); settings: 5-HTR profiling
5-HT1A = biological target: T2, 5-HT1A (Homo sapiens, UniProt P08908); settings: 5-HTR profiling
T2 sequence (P08908 1-422): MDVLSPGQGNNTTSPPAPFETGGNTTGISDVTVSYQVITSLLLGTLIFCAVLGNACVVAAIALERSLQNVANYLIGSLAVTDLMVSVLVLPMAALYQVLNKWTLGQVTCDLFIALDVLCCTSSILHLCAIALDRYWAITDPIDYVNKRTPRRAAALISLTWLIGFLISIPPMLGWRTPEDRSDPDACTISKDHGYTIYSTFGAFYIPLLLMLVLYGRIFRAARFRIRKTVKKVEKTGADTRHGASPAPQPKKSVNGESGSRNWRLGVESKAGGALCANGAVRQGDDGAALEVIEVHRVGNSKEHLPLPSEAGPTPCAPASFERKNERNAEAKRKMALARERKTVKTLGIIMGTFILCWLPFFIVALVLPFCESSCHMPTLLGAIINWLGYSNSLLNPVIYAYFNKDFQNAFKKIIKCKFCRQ

Sequence of 5-HT1B (P28222 whole entry, species assumed): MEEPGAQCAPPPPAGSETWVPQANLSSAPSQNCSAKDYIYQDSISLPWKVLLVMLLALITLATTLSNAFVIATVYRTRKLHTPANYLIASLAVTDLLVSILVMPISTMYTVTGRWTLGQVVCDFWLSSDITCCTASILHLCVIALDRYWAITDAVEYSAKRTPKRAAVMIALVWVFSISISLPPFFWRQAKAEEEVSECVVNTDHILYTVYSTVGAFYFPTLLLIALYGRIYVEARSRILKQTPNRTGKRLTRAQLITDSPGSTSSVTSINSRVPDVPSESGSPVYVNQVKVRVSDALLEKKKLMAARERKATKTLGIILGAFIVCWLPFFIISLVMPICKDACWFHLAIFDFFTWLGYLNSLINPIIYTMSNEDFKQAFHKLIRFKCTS
Sequence of 5-HT2B (P41595 whole entry, species assumed): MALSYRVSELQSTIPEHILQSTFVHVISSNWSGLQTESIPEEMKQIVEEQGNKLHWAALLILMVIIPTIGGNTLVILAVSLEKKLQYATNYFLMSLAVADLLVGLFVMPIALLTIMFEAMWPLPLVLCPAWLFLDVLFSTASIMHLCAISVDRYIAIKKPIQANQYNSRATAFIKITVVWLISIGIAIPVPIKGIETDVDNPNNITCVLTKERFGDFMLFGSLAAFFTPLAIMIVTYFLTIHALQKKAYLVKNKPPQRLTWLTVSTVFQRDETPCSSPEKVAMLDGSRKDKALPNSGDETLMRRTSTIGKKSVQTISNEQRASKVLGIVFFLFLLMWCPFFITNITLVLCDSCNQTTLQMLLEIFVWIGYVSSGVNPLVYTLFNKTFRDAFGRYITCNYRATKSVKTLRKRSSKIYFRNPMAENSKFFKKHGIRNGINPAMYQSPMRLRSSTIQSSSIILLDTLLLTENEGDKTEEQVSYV
Sequence of 5-HT2A (P28223 whole entry, species assumed): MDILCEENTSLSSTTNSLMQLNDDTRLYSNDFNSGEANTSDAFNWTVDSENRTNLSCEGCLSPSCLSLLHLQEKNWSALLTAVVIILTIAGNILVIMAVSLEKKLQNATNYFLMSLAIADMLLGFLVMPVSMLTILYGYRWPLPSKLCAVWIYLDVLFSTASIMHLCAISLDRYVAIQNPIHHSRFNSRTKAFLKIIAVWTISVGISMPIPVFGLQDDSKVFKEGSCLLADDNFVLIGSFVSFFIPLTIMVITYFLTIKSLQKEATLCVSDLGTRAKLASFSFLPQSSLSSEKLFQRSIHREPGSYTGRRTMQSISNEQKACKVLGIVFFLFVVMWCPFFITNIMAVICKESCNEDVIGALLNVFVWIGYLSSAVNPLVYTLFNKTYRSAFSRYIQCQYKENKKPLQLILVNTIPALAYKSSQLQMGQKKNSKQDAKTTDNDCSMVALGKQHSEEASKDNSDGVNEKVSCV
Sequence of 5-HT1E (P28566 whole entry, species assumed): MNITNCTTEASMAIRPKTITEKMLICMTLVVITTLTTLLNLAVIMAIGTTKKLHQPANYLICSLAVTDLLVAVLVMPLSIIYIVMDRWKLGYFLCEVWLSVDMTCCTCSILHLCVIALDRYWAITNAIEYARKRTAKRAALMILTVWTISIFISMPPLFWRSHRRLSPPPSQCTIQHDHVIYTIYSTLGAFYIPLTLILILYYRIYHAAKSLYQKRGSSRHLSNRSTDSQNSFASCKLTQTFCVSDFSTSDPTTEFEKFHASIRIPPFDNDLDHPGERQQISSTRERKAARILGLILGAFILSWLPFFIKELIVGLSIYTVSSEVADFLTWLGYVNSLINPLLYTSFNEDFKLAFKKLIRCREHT
Sequence of 5-HT6 (P50406 whole entry, species assumed): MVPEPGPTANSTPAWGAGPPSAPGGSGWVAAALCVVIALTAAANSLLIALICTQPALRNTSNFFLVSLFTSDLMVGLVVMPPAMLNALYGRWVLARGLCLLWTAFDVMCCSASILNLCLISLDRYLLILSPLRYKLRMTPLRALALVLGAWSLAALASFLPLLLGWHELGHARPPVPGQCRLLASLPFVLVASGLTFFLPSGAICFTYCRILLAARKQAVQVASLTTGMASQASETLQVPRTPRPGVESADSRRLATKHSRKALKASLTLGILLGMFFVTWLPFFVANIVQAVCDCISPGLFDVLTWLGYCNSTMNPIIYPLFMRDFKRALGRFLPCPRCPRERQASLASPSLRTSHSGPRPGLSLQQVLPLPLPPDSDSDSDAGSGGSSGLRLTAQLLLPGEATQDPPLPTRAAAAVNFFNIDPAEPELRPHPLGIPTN
Sequence of 5-HT7 (P34969 whole entry, species assumed): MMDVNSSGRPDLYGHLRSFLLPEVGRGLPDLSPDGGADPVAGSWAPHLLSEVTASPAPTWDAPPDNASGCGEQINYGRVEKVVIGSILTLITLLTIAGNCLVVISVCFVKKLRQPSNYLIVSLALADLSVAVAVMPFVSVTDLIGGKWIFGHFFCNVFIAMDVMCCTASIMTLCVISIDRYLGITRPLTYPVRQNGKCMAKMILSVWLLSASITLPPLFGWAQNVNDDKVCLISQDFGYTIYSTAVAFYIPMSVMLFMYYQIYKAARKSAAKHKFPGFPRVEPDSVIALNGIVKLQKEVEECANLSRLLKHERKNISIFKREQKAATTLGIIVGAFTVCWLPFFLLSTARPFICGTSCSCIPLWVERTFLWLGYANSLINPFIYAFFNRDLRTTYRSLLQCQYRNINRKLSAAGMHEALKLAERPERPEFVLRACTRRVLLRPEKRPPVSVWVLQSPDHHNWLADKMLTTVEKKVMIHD
Sequence of 5-HT5a (P47898 whole entry, species assumed): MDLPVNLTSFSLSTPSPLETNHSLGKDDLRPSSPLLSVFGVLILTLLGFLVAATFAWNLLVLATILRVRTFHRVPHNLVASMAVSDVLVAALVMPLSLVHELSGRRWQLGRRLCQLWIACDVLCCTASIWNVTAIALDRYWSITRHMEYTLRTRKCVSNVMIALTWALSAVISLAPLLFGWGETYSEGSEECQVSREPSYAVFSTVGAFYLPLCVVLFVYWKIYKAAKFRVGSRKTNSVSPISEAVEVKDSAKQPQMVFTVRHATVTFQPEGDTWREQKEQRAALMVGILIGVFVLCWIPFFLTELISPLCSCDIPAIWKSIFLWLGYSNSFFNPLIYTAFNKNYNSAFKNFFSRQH

SMILES: CNC(=O)c1cccc(Oc2ccc(NC(=O)Nc3ccc(Cl)c(C(F)(F)F)c3)cc2)c1 [HN01]
change of binding relative to sorafenib (in words) (5-HT2B): slight improvement of binding

SMILES: O=C(c1ccc(F)cc1)C1CCN(CCn2c(=O)[nH]c3ccccc3c2=O)CC1 [ketanserin]
effect of mutation on binding affinity (in words) (5-HT2A S3.36A/C mutant): almost no effect
effect of mutation on binding affinity (in words) (5-HT2A F6.52L mutant): almost no effect
decrease of binding by mutation (5-HT2A W6.48A mutant): 7 fold
decrease of binding by mutation (5-HT2A F6.51L mutant): at least 800 fold

binding (in words) (5-HT1B): doesn’t bind
binding (in words) (5-HT7): weakly binds
binding (in words) (5-HT2A): weakly binds
binding (in words) (5-HT1E): doesn’t bind
binding (in words) (5-HT3): doesn’t bind
binding (in words) (5-HT5a): weakly binds
binding (in words) (5-HT6): weakly binds
binding (in words) (5-HT1A): weakly binds
SMILES: CNC(=O)c1cc(Oc2ccc(NC(=O)Nc3ccc(Cl)c(C(F)(F)F)c3)cc2)ccn1 [sorafenib]
